From ChEMBL document CHEMBL1275518, “Low penetration of oseltamivir and its carboxylate into cerebrospinal fluid in healthy Japanese and Caucasian volunteers” (Antimicrob Agents Chemother, 2008)

Experiments:
[1] = Clast in healthy adult CSF assessed as oseltamivir carboxylate at 150 mg, po administered as single dose by LC/MS analysis; format: ADME, organism-based, Cerebrospinal fluid; conditions: human, in vivo
[2] = Tmax in healthy adult CSF at 150 mg, po administered as single dose by LC/MS analysis; format: ADME, organism-based, Cerebrospinal fluid; conditions: human
[3] = Cmax in healthy adult CSF assessed as oseltamivir carboxylate at 150 mg, po administered as single dose by LC/MS analysis; format: ADME, organism-based, Cerebrospinal fluid; set-up: dose 150 mg, route oral; conditions: human, in vivo
[4] = Half life in healthy adult plasma assessed as oseltamivir carboxylate at 150 mg, po administered as single dose by LC/MS analysis; format: ADME, organism-based; conditions: human, in vivo
[5] = Tlast in healthy adult CSF at 150 mg, po administered as single dose by LC/MS analysis; format: ADME, organism-based, Cerebrospinal fluid; conditions: human, in vivo
[6] = Clast in healthy adult plasma at 150 mg, po administered as single dose by LC/MS analysis; format: ADME, organism-based; conditions: human, in vivo
[7] = AUC (0 to last) in healthy adult CSF at 150 mg, po administered as single dose by LC/MS analysis; format: ADME, organism-based; set-up: dose 150 mg, route oral, time 0 - last; conditions: human
[8] = AUC (0 to last) in healthy adult plasma at 150 mg, po administered as single dose by LC/MS analysis; format: ADME, organism-based; set-up: dose 150 mg, time 0 - last, route oral; conditions: human
[9] = Ratio of Cmax in healthy adult CSF to Cmax in healthy adult plasma assessed as oseltamivir carboxylate at 150 mg, po administered as single dose; format: ADME, organism-based; conditions: human
[10] = Cmax in healthy adult plasma at 150 mg, po administered as single dose by LC/MS analysis; format: ADME, organism-based; set-up: dose 150 mg, route oral; conditions: human
[11] = Tlast in healthy adult CSF assessed as oseltamivir carboxylate at 150 mg, po administered as single dose by LC/MS analysis; format: ADME, organism-based, Cerebrospinal fluid; conditions: human, in vivo
[12] = Ratio of Cmax in healthy adult CSF to Cmax in healthy adult plasma at 150 mg, po administered as single dose; format: ADME, organism-based; conditions: human
[13] = Tlast in healthy adult plasma assessed as oseltamivir carboxylate at 150 mg, po administered as single dose by LC/MS analysis; format: ADME, organism-based; conditions: human, in vivo
[14] = Tmax in healthy adult plasma assessed as oseltamivir carboxylate at 150 mg, po administered as single dose by LC/MS analysis; format: ADME, organism-based; conditions: human, in vivo
[15] = Apparent oral clearance in healthy adult plasma at 150 mg, po administered as single dose by LC/MS analysis; format: ADME, organism-based; conditions: human
[16] = AUC (0 to infinity) in healthy adult plasma assessed as oseltamivir carboxylate at 150 mg, po administered as single dose by LC/MS analysis; format: ADME, organism-based; set-up: dose 150 mg, time infinity, route oral; conditions: human, in vivo
[17] = Ratio of AUC (0 to last) in healthy adult CSF to AUC (0 to last) in healthy adult plasma at 150 mg, po administered as single dose; format: ADME, organism-based; conditions: human
[18] = Tlast in healthy adult plasma at 150 mg, po administered as single dose by LC/MS analysis; format: ADME, organism-based; conditions: human, in vivo
[19] = Clast in healthy adult plasma assessed as oseltamivir carboxylate at 150 mg, po administered as single dose by LC/MS analysis; format: ADME, organism-based; conditions: human, in vivo
[20] = Ratio of AUC (0 to last) in healthy adult CSF to AUC (0 to last) in healthy adult plasma assessed as oseltamivir carboxylate at 150 mg, po administered as single dose; format: ADME, organism-based; conditions: human
[21] = Clast in healthy adult CSF at 150 mg, po administered as single dose by LC/MS analysis; format: ADME, organism-based, Cerebrospinal fluid; conditions: human, in vivo
[22] = Cmax in healthy adult plasma assessed as oseltamivir carboxylate at 150 mg, po administered as single dose by LC/MS analysis; format: ADME, organism-based; set-up: dose 150 mg, route oral; conditions: human, in vivo
[23] = Tmax in healthy adult plasma at 150 mg, po administered as single dose by LC/MS analysis; format: ADME, organism-based; conditions: human
[24] = AUC (0 to infinity) in healthy adult plasma at 150 mg, po administered as single dose by LC/MS analysis; format: ADME, organism-based; set-up: dose 150 mg, time infinity, route oral; conditions: human
[25] = AUC (0 to last) in healthy adult plasma assessed as oseltamivir carboxylate at 150 mg, po administered as single dose by LC/MS analysis; format: ADME, organism-based; set-up: dose 150 mg, time 0 - last, route oral; conditions: human, in vivo
[26] = Half life in healthy adult plasma at 150 mg, po administered as single dose by LC/MS analysis; format: ADME, organism-based; conditions: human
[27] = Tmax in healthy adult CSF assessed as oseltamivir carboxylate at 150 mg, po administered as single dose by LC/MS analysis; format: ADME, organism-based, Cerebrospinal fluid; conditions: human, in vivo
[28] = Cmax in healthy adult CSF at 150 mg, po administered as single dose by LC/MS analysis; format: ADME, organism-based, Cerebrospinal fluid; set-up: dose 150 mg, route oral; conditions: human
[29] = AUC (0 to last) in healthy adult CSF assessed as oseltamivir carboxylate at 150 mg, po administered as single dose by LC/MS analysis; format: ADME, organism-based, Plasma; set-up: dose 150 mg, route oral, time 0 - last; conditions: human, in vivo

## CCOC(=O)C1=C[C@@H](OC(CC)CC)[C@H](NC(C)=O)[C@@H](N)C1.O=P(O)(O)O [OSELTAMIVIR PHOSPHATE]
[1]
  Clast: 14.5 ng/mL
[2]
  Tmax: 3.5 h
[3]
  Cmax: 19 ng/mL
[4]
  t1/2: 5.4 h
[5]
  Tlast: 5.5 h
[6]
  Clast: 2.1 ng/mL
[7]
  AUC(0-t): 7.6 ng·h/mL
[8]
  AUC(0-t): 308 ng·h/mL
[9]
  Ratio: 3.5%
[10]
  Cmax: 115 ng/mL
[11]
  Tlast: 12 h
[12]
  Kp: 2.1%
[13]
  Tlast: 24 h
[14]
  Tmax: 5 h
[15]
  CL/F: 8370 mL/min
[16]
  AUC: 5950 ng·h/mL
[17]
  Kp: 2.4%
[18]
  Tlast: 10.5 h
[19]
  Clast: 50.2 ng/mL
[20]
  Ratio AUC: 2.9%
[21]
  Clast: 1.4 ng/mL
[22]
  Cmax: 544 ng/mL
[23]
  Tmax: 1 h
[24]
  AUC(0-inf): 313 ng·h/mL
[25]
  AUC: 5540 ng·h/mL
[26]
  half-life: 108 min
[27]
  Tmax: 8 h
[28]
  Cmax: 2.4 ng/mL
[29]
  AUC: 157 ng·h/mL
